{
  "source": "patent US20250057772A1",
  "about": "“ORAL DOSAGE FORM WITH IONICALLY CHARGEABLE HYDROGEL FOR DELIVERY OF ACTIVE AGENT” (Entrega Inc., priority 2022, published 2025)",
  "key": {"[1]": {"test": "Evans Blue exclusion procedure", "type": "physicochemical", "settings": "0.125 mg/mL Evans Blue in FASSIF buffer pH 7, hydrogel #12.035 for 40, 60, 80, 90% fluid uptake; p<0.001 vs no hydrogel", "text": "Commercially obtained Evan's blue dye was used as a surrogate marker for an anionic drug in hydrogel testing. It has a molecular weight of 961.8 g/mole and has four negative charges at pH 7 due to four sulfonate groups in the structure. Its visible light absorbance at 605 nm provides an easy way to monitor the concentration of the dye when exposed to the hydrogel in solution.\nFASSIF buffer was created by adding 41.65 g of FASSIF buffer concentrate (Biorelevant Media, code FaSSIF) to 961.1 g DI water and stirred until completely mixed. Evans Blue solution was created by adding Evans Blue to approximately half of the FASSIF solution such that the final concentration of the media is 0.125 mg/mL Evans Blue.\n5 mL of Evans Blue solution was added to a 15 mL centrifuge tube (EB Tube). 5 mL of FASSIF buffer (without Evans Blue) was added to another 15 mL tube (Background Tube). 200 mg of sub-63 um hydrogel #12.035 was added to both tubes. Vortexed tubes until fully mixed and placed both tubes on rocker plate for 15 minutes. After 15 minutes, both tubes were centrifuged at 3000 g for 1 minute. (N=3) 20 μL samples were extracted from the supernatant of both tubes and diluted into 180 μL of DI water in 96-well UV-clear plate. […] The plate was read for absorbance at 605 nm.\nThe absorbance reading samples from each group were averaged. […]"}, "[2]": {"test": "Exclusion or binding of ionic agents by Hydrogel #3.02, exterior fluid concentration by UV absorbance", "type": "physicochemical", "experimental": "Sodium caprate (sodium decanoate) is a known intestinal permeation enhancer with a negative charge (negative charge on the caprate). Sodium caprate (280 mg) was dissolved in 5 mL of modified pH 7 FASSIF buffer.\nThe intestinal permeation enhancer, sodium caprate (280 mg) was added.\nOctreotide (as octreotide acetate) is an FDA approved therapeutic peptide with a molecular weight of 1019 g/mole and a net positive charge at pH below 8 (isoelectric point of octreotide=8.5). Octreotide (5 mg) was dissolved in 5 mL of modified FASSIF buffer at pH 7 (resulting in a starting concentration of 1 mg/mL).\nLanreotide is an FDA approved therapeutic peptide with a molecular weight of 1096 g/mole and a net positive charge at pH below 8. Lanreotide (5 mg) was dissolved in 5 mL of modified FASSIF buffer at pH 7.\nLanreotide is an FDA approved therapeutic peptide with a molecular weight of 1096 g/mole and a net positive charge at pH below 8. Lanreotide (5 mg) was dissolved in 5 mL of deionized water."}, "[3]": {"settings": "published values; cited from earlier work"}},
  "data": [
    {"smiles": "Cc1cc(-c2ccc(/N=N/c3ccc4c(S(=O)(=O)O)cc(S(=O)(=O)O)c(N)c4c3O)c(C)c2)ccc1/N=N/c1ccc2c(S(=O)(=O)O)cc(S(=O)(=O)O)c(N)c2c1O", "note": "[Evans Blue]", "values": [
      {"measurement": "relative concentration of the dye as hydrogel is added", "setting": "[1]", "value": "increasing concentration"}
    ]},
    {"smiles": "CC(C)[C@@H]1NC(=O)[C@H](CCCCN)NC(=O)[C@@H](Cc2c[nH]c3ccccc23)NC(=O)[C@H](Cc2ccc(O)cc2)NC(=O)[C@@H](NC(=O)[C@H](N)Cc2ccc3ccccc3c2)CSSC[C@@H](C(=O)N[C@H](C(N)=O)[C@@H](C)O)NC1=O", "note": "[Lanreotide]", "values": [
      {"measurement": "concentration in the exterior fluid", "setting": "[2]; 5 mg in 5 mL deionized water, Hydrogel #3.02 300 mg, after 25 minutes", "value": "less than 0.05 mg/mL"},
      {"measurement": "concentration in the exterior fluid", "setting": "[2]; 5 mg in 5 mL modified FASSIF pH 7, Hydrogel #3.02 300 mg, after 25 minutes", "value": "~300", "unit": "µg/mL"}
    ]},
    {"smiles": "C[C@@H](O)[C@@H]1NC(=O)[C@H](CCCCN)NC(=O)[C@@H](Cc2c[nH]c3ccccc23)NC(=O)[C@H](Cc2ccccc2)NC(=O)[C@@H](NC(=O)[C@H](N)Cc2ccccc2)CSSC[C@@H](C(=O)N[C@H](CO)[C@@H](C)O)NC1=O", "note": "[Octreotide]", "values": [
      {"measurement": "concentration in the exterior fluid", "setting": "[2]; 5 mg in 5 mL modified FASSIF pH 7 (start 1 mg/mL), Hydrogel #3.02 300 mg, after 10 minutes", "value": "less than 0.8 mg/mL"}
    ]},
    {"smiles": "CCCCCCCCCC(=O)[O-].[Na+]", "note": "[Sodium caprate, sodium decanoate]", "values": [
      {"measurement": "concentration of caprate in the exterior fluid relative to initial concentration", "setting": "[2]; 280 mg in 5 mL modified pH 7 FASSIF, Hydrogel #3.02 300 mg", "value": "~1.4 times the initial concentration"}
    ]},
    {"smiles": "CCS(=O)(=O)O", "note": "[ethanesulfonic acid]", "values": [
      {"measurement": "pKa", "setting": "[3]", "value": "−1.68"}
    ]},
    {"smiles": "COS(=O)(=O)O", "note": "[methanesulfate]", "values": [
      {"measurement": "pKa", "setting": "[3]", "value": "−3.4"}
    ]},
    {"smiles": "CCCN", "note": "[propylamine]", "values": [
      {"measurement": "pKa", "setting": "[3]", "value": "~10.7"}
    ]}
  ]
}
